# Measured values published in patent publication US20230226005A1, “Methods of Treating, Ameliorating, Shortening Duration, and/or Reversing Symptoms and/or Complications of a Coronavirus Infection” (Yale University, priority 2020, published 2023).
# Tests used:
# COVID-19 infection [1] = test: Phase IIa study: chest/respiratory-family symptom score; format: in vivo
# COVID-19 infection [2] = test: Phase IIa study: COVID-19 PRO frequency score; format: in vivo, human
# From the text: Subjects were enrolled in two cohorts. The treatment cohort consists of subjects receiving camostat mesylate, and the control cohort consists of subjects receiving a placebo. […] The control cohort received a placebo four times daily for seven days.
# Subjects self-administered Likert-type symptom score evaluations daily from days 0-14, wherein subjects provided a ranking (i.e., 0—not at all, 1—a little bit, 2—somewhat, 3—quite a bit, and 4—very much) in response to various symptoms (e.g., nose, throat, eyes, chest/respiratory, gastrointestinal, body/systemic, and smell/taste symptoms) (Table 1).
# The COVID-19 PRO daily self-score tool consists of 39 items that are answered daily by the subject. Items 1-33 are Likert-scale questions (e.g., rated 0-4), wherein 0=not at all, and 4=very much. These items are summed to score the severity of symptoms, wherein a total score of 132 would indicate the greatest severity of symptoms and a score of 0 would indicate no severity of symptoms.
# Additional statistical models were applied to the raw data, which are provided herein (Tables 8-10).
# COVID-19 infection [3] = test: Phase IIa study: smell/taste-family symptom score; format: in vivo; settings: for smell/taste-family symptoms, Fitzmaurice mixed effects model, Effect: Camostat vs Placebo
structure (smiles),measurement,setting,value
"CN(C)C(=O)COC(=O)Cc1ccc(OC(=O)c2ccc(NC(=N)N)cc2)cc1 [camostat, 4-[[4-[(Aminoiminomethyl)amino]benzoyl]oxy]benzeneacetic acid 2-(dimethylamino)-2-oxoethyl ester]","chest/respiratory-family symptom score, Fitzmaurice model, Effect (placebo vs camostat)",COVID-19 infection [1]; day 7,−0.7 (0.9)
same,"chest/respiratory-family symptom score, Fitzmaurice model, Camostat",COVID-19 infection [1]; day 8,5.7 (0.8)
same,"chest/respiratory-family symptom score, Fitzmaurice model, Effect (placebo vs camostat)",COVID-19 infection [1]; day 8,−1.4 (0.9)
same,"chest/respiratory-family symptom score, Fitzmaurice model, Camostat",COVID-19 infection [1]; day 9,5.4 (0.8)
same,"chest/respiratory-family symptom score, Fitzmaurice model, Effect (placebo vs camostat)",COVID-19 infection [1]; day 9,−1.2 (0.9)
same,"chest/respiratory-family symptom score, Fitzmaurice model, Camostat",COVID-19 infection [1]; day 10,4.9 (0.8)
same,"chest/respiratory-family symptom score, Fitzmaurice model, Effect (placebo vs camostat)",COVID-19 infection [1]; day 10,−1 (0.9)
same,"chest/respiratory-family symptom score, Fitzmaurice model, Camostat",COVID-19 infection [1]; day 11,4.2 (0.8)
same,"chest/respiratory-family symptom score, Fitzmaurice model, Effect (placebo vs camostat)",COVID-19 infection [1]; day 11,−0.5 (0.9)
same,"chest/respiratory-family symptom score, Fitzmaurice model, Camostat",COVID-19 infection [1]; day 12,4 (0.8)
same,"chest/respiratory-family symptom score, Fitzmaurice model, Effect (placebo vs camostat)",COVID-19 infection [1]; day 12,−1 (0.9)
same,"chest/respiratory-family symptom score, Fitzmaurice model, Camostat",COVID-19 infection [1]; day 13,3.9 (0.9)
same,"chest/respiratory-family symptom score, Fitzmaurice model, Effect (placebo vs camostat)",COVID-19 infection [1]; day 13,−1.1 (0.9)
same,"chest/respiratory-family symptom score, Fitzmaurice model, Camostat",COVID-19 infection [1]; day 14,3.5 (0.9)
same,"chest/respiratory-family symptom score, Fitzmaurice model, Effect (placebo vs camostat)",COVID-19 infection [1]; day 14,−0.8 (0.9)
same,"frequency score, Fitzmaurice mixed effects model, A: Camostat arm",COVID-19 infection [2]; day 0,6.25 (0.47)
same,"frequency score, Fitzmaurice mixed effects model, B − A (placebo − camostat)",COVID-19 infection [2]; day 0,0
same,"frequency score, Fitzmaurice mixed effects model, A: Camostat arm",COVID-19 infection [2]; day 1,6.49 (0.57)
same,"frequency score, Fitzmaurice mixed effects model, B − A (placebo − camostat)",COVID-19 infection [2]; day 1,−0.05 (0.67)
same,"frequency score, Fitzmaurice mixed effects model, A: Camostat arm",COVID-19 infection [2]; day 2,5.51 (0.59)
same,"frequency score, Fitzmaurice mixed effects model, B − A (placebo − camostat)",COVID-19 infection [2]; day 2,−0.03 (0.68)
same,"frequency score, Fitzmaurice mixed effects model, A: Camostat arm",COVID-19 infection [2]; day 3,5.88 (0.58)
same,"frequency score, Fitzmaurice mixed effects model, B − A (placebo − camostat)",COVID-19 infection [2]; day 3,−0.42 (0.67)
same,"frequency score, Fitzmaurice mixed effects model, A: Camostat arm",COVID-19 infection [2]; day 4,5.64 (0.58)
same,"frequency score, Fitzmaurice mixed effects model, B − A (placebo − camostat)",COVID-19 infection [2]; day 4,−1.05 (0.68)
same,"frequency score, Fitzmaurice mixed effects model, A: Camostat arm",COVID-19 infection [2]; day 5,5.54 (0.58)
same,"frequency score, Fitzmaurice mixed effects model, B − A (placebo − camostat)",COVID-19 infection [2]; day 5,−0.96 (0.68)
same,"frequency score, Fitzmaurice mixed effects model, A: Camostat arm",COVID-19 infection [2]; day 6,4.75 (0.58)
same,"frequency score, Fitzmaurice mixed effects model, B − A (placebo − camostat)",COVID-19 infection [2]; day 6,−0.41 (0.68)
same,"frequency score, Fitzmaurice mixed effects model, A: Camostat arm",COVID-19 infection [2]; day 7,4.62 (0.59)
same,"frequency score, Fitzmaurice mixed effects model, B − A (placebo − camostat)",COVID-19 infection [2]; day 7,−0.51 (0.68)
same,"frequency score, Fitzmaurice mixed effects model, A: Camostat arm",COVID-19 infection [2]; day 8,4.39 (0.6)
same,"frequency score, Fitzmaurice mixed effects model, B − A (placebo − camostat)",COVID-19 infection [2]; day 8,−0.9 (0.7)
same,"frequency score, Fitzmaurice mixed effects model, A: Camostat arm",COVID-19 infection [2]; day 9,3.98 (0.59)
same,"frequency score, Fitzmaurice mixed effects model, B − A (placebo − camostat)",COVID-19 infection [2]; day 9,−0.54 (0.69)
same,"frequency score, Fitzmaurice mixed effects model, A: Camostat arm",COVID-19 infection [2]; day 10,3.96 (0.6)
same,"frequency score, Fitzmaurice mixed effects model, B − A (placebo − camostat)",COVID-19 infection [2]; day 10,−0.98 (0.69)
same,"frequency score, Fitzmaurice mixed effects model, A: Camostat arm",COVID-19 infection [2]; day 11,3.8 (0.6)
same,"frequency score, Fitzmaurice mixed effects model, B − A (placebo − camostat)",COVID-19 infection [2]; day 11,−0.9 (0.7)
same,"frequency score, Fitzmaurice mixed effects model, A: Camostat arm",COVID-19 infection [2]; day 12,2.75 (0.6)
same,"frequency score, Fitzmaurice mixed effects model, B − A (placebo − camostat)",COVID-19 infection [2]; day 12,−0.28 (0.7)
same,"frequency score, Fitzmaurice mixed effects model, A: Camostat arm",COVID-19 infection [2]; day 13,2.66 (0.62)
same,"frequency score, Fitzmaurice mixed effects model, B − A (placebo − camostat)",COVID-19 infection [2]; day 13,−0.22 (0.72)
same,"frequency score, Fitzmaurice mixed effects model, A: Camostat arm",COVID-19 infection [2]; day 14,2.44 (0.61)
same,"frequency score, Fitzmaurice mixed effects model, B − A (placebo − camostat)",COVID-19 infection [2]; day 14,−0.13 (0.72)
same,"smell/taste-family symptoms, Fitzmaurice mixed effects model, Camostat",COVID-19 infection [3]; Day 0,1.4 (0.2)
same,"smell/taste-family symptoms, Fitzmaurice mixed effects model, Camostat",COVID-19 infection [3]; Day 1,1.4 (0.2)
same,"smell/taste-family symptoms, Fitzmaurice mixed effects model, Effect",COVID-19 infection [3]; Day 1,0.5 (0.3)
same,"smell/taste-family symptoms, Fitzmaurice mixed effects model, Camostat",COVID-19 infection [3]; Day 2,1.4 (0.2)
same,"smell/taste-family symptoms, Fitzmaurice mixed effects model, Effect",COVID-19 infection [3]; Day 2,0.7 (0.3)
same,"smell/taste-family symptoms, Fitzmaurice mixed effects model, Camostat",COVID-19 infection [3]; Day 3,1.3 (0.2)
same,"smell/taste-family symptoms, Fitzmaurice mixed effects model, Effect",COVID-19 infection [3]; Day 3,1 (0.3)
same,"smell/taste-family symptoms, Fitzmaurice mixed effects model, Camostat",COVID-19 infection [3]; Day 4,1.2 (0.2)
same,"smell/taste-family symptoms, Fitzmaurice mixed effects model, Effect",COVID-19 infection [3]; Day 4,1 (0.3)
same,"smell/taste-family symptoms, Fitzmaurice mixed effects model, Camostat",COVID-19 infection [3]; Day 5,1.1 (0.2)
same,"smell/taste-family symptoms, Fitzmaurice mixed effects model, Effect",COVID-19 infection [3]; Day 5,1.2 (0.3)
same,"smell/taste-family symptoms, Fitzmaurice mixed effects model, Camostat",COVID-19 infection [3]; Day 6,1 (0.2)
same,"smell/taste-family symptoms, Fitzmaurice mixed effects model, Effect",COVID-19 infection [3]; Day 6,0.7 (0.3)
same,"smell/taste-family symptoms, Fitzmaurice mixed effects model, Camostat",COVID-19 infection [3]; Day 7,0.8 (0.2)
same,"smell/taste-family symptoms, Fitzmaurice mixed effects model, Effect",COVID-19 infection [3]; Day 7,0.7 (0.3)
same,"smell/taste-family symptoms, Fitzmaurice mixed effects model, Camostat",COVID-19 infection [3]; Day 8,0.8 (0.2)
same,"smell/taste-family symptoms, Fitzmaurice mixed effects model, Effect",COVID-19 infection [3]; Day 8,0.8 (0.3)
same,"smell/taste-family symptoms, Fitzmaurice mixed effects model, Camostat",COVID-19 infection [3]; Day 9,0.9 (0.2)
same,"smell/taste-family symptoms, Fitzmaurice mixed effects model, Effect",COVID-19 infection [3]; Day 9,0.6 (0.3)
same,"smell/taste-family symptoms, Fitzmaurice mixed effects model, Camostat",COVID-19 infection [3]; Day 10,0.9 (0.2)
same,"smell/taste-family symptoms, Fitzmaurice mixed effects model, Effect",COVID-19 infection [3]; Day 10,0.5 (0.3)
same,"smell/taste-family symptoms, Fitzmaurice mixed effects model, Camostat",COVID-19 infection [3]; Day 11,0.9 (0.2)
same,"smell/taste-family symptoms, Fitzmaurice mixed effects model, Effect",COVID-19 infection [3]; Day 11,0.3 (0.3)
same,"smell/taste-family symptoms, Fitzmaurice mixed effects model, Camostat",COVID-19 infection [3]; Day 12,0.9 (0.2)
same,"smell/taste-family symptoms, Fitzmaurice mixed effects model, Effect",COVID-19 infection [3]; Day 12,0.2 (0.3)
same,"smell/taste-family symptoms, Fitzmaurice mixed effects model, Camostat",COVID-19 infection [3]; Day 13,0.7 (0.3)
same,"smell/taste-family symptoms, Fitzmaurice mixed effects model, Effect",COVID-19 infection [3]; Day 13,0.4 (0.3)
same,"smell/taste-family symptoms, Fitzmaurice mixed effects model, Camostat",COVID-19 infection [3]; Day 14,0.8 (0.3)
same,"smell/taste-family symptoms, Fitzmaurice mixed effects model, Effect",COVID-19 infection [3]; Day 14,0.4 (0.3)
